Literature values in patent US9555029B2 (HIKMA PHARMACEUTICALS, priority 2013, dated 2017).

Experiments:
[1] = target: CYP3A4 (Homo sapiens, UniProt P08684); conditions: FDA definition of relative strength; cited from earlier work
[2] = target: P-gp (Homo sapiens, UniProt P08183); conditions: FDA definition; cited from earlier work
Chain of P-gp (P08183 whole entry): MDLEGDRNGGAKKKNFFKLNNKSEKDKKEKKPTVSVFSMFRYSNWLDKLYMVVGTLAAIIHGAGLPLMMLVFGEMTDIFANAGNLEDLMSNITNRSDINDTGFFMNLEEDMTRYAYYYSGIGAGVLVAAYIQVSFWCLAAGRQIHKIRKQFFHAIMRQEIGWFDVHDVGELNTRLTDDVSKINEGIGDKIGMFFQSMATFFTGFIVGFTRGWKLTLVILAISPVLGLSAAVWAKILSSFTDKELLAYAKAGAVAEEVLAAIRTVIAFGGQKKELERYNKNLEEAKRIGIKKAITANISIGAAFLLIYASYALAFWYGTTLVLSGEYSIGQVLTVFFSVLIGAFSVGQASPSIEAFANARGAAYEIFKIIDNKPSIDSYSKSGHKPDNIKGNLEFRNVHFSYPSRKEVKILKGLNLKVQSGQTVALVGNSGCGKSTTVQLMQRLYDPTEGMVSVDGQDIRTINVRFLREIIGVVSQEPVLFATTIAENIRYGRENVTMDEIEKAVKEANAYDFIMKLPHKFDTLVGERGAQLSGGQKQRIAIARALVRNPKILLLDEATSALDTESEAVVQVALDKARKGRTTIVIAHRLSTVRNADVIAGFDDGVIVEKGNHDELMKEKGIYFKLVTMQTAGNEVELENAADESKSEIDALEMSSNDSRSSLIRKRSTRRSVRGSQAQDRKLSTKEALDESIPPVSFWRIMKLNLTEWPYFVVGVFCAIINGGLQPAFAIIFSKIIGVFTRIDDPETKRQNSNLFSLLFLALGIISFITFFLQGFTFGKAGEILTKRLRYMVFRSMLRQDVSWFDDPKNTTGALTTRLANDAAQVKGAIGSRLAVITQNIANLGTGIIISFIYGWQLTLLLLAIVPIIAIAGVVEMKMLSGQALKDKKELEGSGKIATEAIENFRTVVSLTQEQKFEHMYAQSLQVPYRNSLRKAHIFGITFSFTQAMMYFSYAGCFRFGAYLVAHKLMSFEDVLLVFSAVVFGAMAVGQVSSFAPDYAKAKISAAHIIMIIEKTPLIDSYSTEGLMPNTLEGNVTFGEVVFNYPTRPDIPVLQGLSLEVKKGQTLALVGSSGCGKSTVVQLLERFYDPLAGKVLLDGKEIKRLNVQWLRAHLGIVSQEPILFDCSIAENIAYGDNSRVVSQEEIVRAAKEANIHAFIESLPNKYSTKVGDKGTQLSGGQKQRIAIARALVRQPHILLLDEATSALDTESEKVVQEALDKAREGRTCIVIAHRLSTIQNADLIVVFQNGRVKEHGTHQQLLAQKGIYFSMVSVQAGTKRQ

Chain of CYP3A4 (P08684 whole entry): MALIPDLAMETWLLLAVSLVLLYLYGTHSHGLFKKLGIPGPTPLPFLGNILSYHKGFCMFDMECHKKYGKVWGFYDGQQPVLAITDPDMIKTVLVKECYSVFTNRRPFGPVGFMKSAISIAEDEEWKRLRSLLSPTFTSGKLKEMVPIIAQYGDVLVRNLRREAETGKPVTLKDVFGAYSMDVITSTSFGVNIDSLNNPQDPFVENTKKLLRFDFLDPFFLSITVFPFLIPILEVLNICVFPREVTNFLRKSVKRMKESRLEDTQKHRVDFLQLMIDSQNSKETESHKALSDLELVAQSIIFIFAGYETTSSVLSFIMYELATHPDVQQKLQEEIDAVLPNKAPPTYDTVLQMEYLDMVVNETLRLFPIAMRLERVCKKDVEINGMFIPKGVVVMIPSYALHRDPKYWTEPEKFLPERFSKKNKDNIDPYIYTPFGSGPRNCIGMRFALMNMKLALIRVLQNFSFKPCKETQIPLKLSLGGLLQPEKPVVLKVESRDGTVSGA

| SMILES | Strength as inhibitor of CYP3A4 [1] | Inhibitor of P-gp [2] |
| --- | --- | --- |
| OC(Cn1cncn1)(Cn1cncn1)c1ccc(F)cc1F [Fluconazole, 2-(2,4-difluorophenyl)-1,3-bis(1H-1,2,4-triazol-1-yl)propan-2-ol] | moderate (“Moderate inhibitors” cause ≧2-fold but <5-fold (i.e., 100-399%) increase in AUC) | not an inhibitor |
| CN/C(=N/CCSCc1nc[nH]c1C)NC#N [Cimetidine, 2-cyano-1-methyl-3-(2-[(5-methyl-1H-imidazol-4-yl)methylthio]ethyl)guanidine] | – | not an inhibitor |
| C[C@@H](c1ncncc1F)[C@](O)(Cn1cncn1)c1ccc(F)cc1F [Voriconazole, (2R,3S)-2-(2,4-difluorophenyl)-3-(5-fluoropyrimidin-4-yl)-1-(1H-1,2,4-triazol-1-yl)butan-2-ol] | – | not an inhibitor |
